Laboratory results as given in publication PMC11500415, “Chemical inhibition of stomatal differentiation by perturbation of the master-regulatory bHLH heterodimer via an ACT-Like domain” (Nature Communications, 2024).
Values joined by “and” are separate entries in the source; they are usually repeats but may differ in a detail not shown here. Equal entries are not always repeated. Where two headings read alike, the source gives them in different places.

Target: T1, MUTE_ACTL (Arabidopsis thaliana, UniProt Q9M8K6)
T1 construct: MUTE-ACTL (114-202); made in house; host or cells: E. coli BL21
T1 sequence (Q9M8K6 114-202): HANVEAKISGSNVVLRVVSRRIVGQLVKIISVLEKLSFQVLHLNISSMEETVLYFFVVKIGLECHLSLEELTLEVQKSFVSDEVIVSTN
Experiment: BLI direct binding
Design: species or system A. thaliana
Details: for Kd: read-out: KD
Excerpt: A. thaliana SCRM (1-494), ΔNSPCH (98-364), MUTE (1-202), ΔNFAMA (190-414), MUTEΔC (1-114), MUTER133A_R134A, MUTEE162A_E163A, MUTER133A_R134A_E162A_E163A, SCRM-ACTL (405-494), MUTE-ACTL (114-202), SPCH-ACTL (285-364), FAMA-ACTL (306-414), MUTE_ACTLR133A_R134A, MUTE_ACTLE162A_E163A, MUTE_ACTLR133A_R134A_E162A_E163A were cloned into pGEX-4T-1 vector with an N-terminal GST tag and a thrombin cleavage sequence. For protein expression, the constructs were transformed into E. coli strain BL21. For each transformant, a single colony was selected and incubated in 10 ml LB liquid media. The overnight-incubated E. coli suspensions were transferred to 1 L LB medium and incubated at 37 °C for around 2 h until the OD600 reached 0.4–0.6. The isopropyl β-D-1-thiogalactopyranoside ([…] of final concentration) was added to the cultures and the strains were incubated at 22 °C for a further 18 h. GST-fused proteins were purified using glutathione agarose resin. The soluble portion of the cell lysate was loaded onto a GST-Sepharose column. Nonspecifically bound proteins were removed by washing the column with 20 mM Tris pH 8.0, 200 mM NaCl. The bound GST-fused protein was eluted with 10 mm glutathione and 20 mM Tris pH 8.0, 200 mM NaCl. The GST-fused proteins were exchanged with phosphate-buffered saline buffer, and then the solution was treated with 50 μg of thrombin for 10–12 h at 16 ^οC. The GST portion of the protein was cleaved during thrombin digestion, and then the whole solution was reloaded onto the glutathione S-transferase column to obtain pure protein. The purified proteins were further purified by gel filtration on a Superdex-200 (GE) column using fast protein liquid chromatography and phosphate buffer (pH 7.2) as the eluent. The purity of the protein was checked by SDS-PAGE. For detailed lists of oligo DNA and plasmid information, see Supplementary Tables 5, 6, respectively.
The binding affinities of SCRM to MUTE / MUTER133A_R134A / MUTEE162A_E163A / MUTER133A_R134A_E162A_E163A in presence and absence of Stomidazolone (3) and its analogues (AYSJ1059 (5) and AYSJ1061 (6)), and Stomidazolone / AYSJ1059 / AYSJ1061 interactions with GST-tagged SCRM, MUTE, SPCH, FAMA, MUTE ΔACTL, MUTE_ACTL, SCRM_ACTL, SPCH_ACTL and FAMA_ACTL, MUTER133A_134A, MUTEE162A_E163A, MUTER133A_R134A_E162A_E163A were measured using the Octet Red96 system (ForteBio, Pall Life Sciences) following the manufacturer’s protocols. The optical probes coated with anti-GST were first loaded with 500 nM GST tagged proteins before kinetic binding analyses. The experiment was performed in 96-well plates maintained at 30 °C. Each well was loaded with 200 μL reaction volume for the experiment. The binding buffer used in these experiments contained 1× PBS supplemented with 2% DMSO, 0.02% Tween20. […] There was no binding of the analytes to the unloaded probes as shown by the control wells. Binding kinetics to all seven concentrations of the analytes were measured simultaneously using default parameters on the instrument. The data were analyzed using the Octet data analysis software. The association and dissociation curves were fit with the 1:1 homogeneous ligand model. The kobs (observed rate constant) values were used to calculate Kd, with steady-state analysis of the direct binding. See Supplementary Table 3 for details.

[1] = MUTE_ACTL on Anti-GST sensor, Stomid 6.25 µM, rep-1, rep-2
[2] = MUTE_ACTL on Anti-GST sensor, Stomid 12.5 µM, rep-1, rep-2
[3] = MUTE_ACTL on Anti-GST sensor, Stomid 25 µM, rep-1, rep-2
[4] = MUTE_ACTL on Anti-GST sensor, Stomid 50 µM, rep-1, rep-2
[5] = MUTE_ACTL on Anti-GST sensor, Stomid 100 µM, rep-1, rep-2
[6] = MUTE_ACTL on Anti-GST sensor, Stomid 200 µM, rep-1, rep-2

SMILES: O=C1C(c2ccccc2)=NC(NS(=O)(=O)c2ccccc2)(c2ccccc2)N1S(=O)(=O)c1ccccc1 (stereo not shown) [Stomidazolone]
- Response [1]: 0.271 and 0.242
- kobs [1]: 0.00155 s⁻¹ and 0.00133 s⁻¹
- kon [1]: 4070 M⁻¹ s⁻¹
- Kd [1]: 11.9 µM
- RMax [2]: 0.4 and 0.435
- Req/Rmax(%) [2]: 87.1% and 49%
- Response [2]: 0.391 and 0.425
- kon [2]: 4070 M⁻¹ s⁻¹
- Kd [2]: 11.9 µM
- RMax [3]: 0.49 and 0.53
- Req/Rmax(%) [3]: 83.8% and 61.4%
- Response [3]: 0.486 and 0.524
- kobs [3]: 0.00294 s⁻¹ and 0.00162 s⁻¹
- kon [3]: 4080 M⁻¹ s⁻¹
- Kd [3]: 12 µM and 11.8 µM
- RMax [4]: 0.545 and 0.565
- Req/Rmax(%) [4]: 71.3%
- Response [4]: 0.535 and 0.563
- Kd [4]: 11.9 µM and 11.8 µM
- RMax [5]: 0.621 and 0.64
- Req/Rmax(%) [5]: 98.7%
- Response [5]: 0.611 and 0.632
- Kd [5]: 11.7 µM
- RMax [6]: 0.63 and 0.655
- Req/Rmax(%) [6]: 100%
- Response [6]: 0.625 and 0.645
- kobs [6]: 0.0329 s⁻¹ and 0.0251 s⁻¹
- Kd [6]: 12 µM
- koff (read-out: kdis(1/s), BLI, sensor at Stomid 3.12 µM): 0.0481 s⁻¹
- koff (read-out: kdis(1/s), BLI, sensor at Stomid 6.25 µM): 0.0483 s⁻¹
- koff (read-out: kdis(1/s), BLI, sensor at Stomid 12.5 µM): 0.0485 s⁻¹
- koff (read-out: kdis(1/s), BLI, sensor at Stomid 25 µM): 0.0483 s⁻¹
- koff (read-out: kdis(1/s), BLI, sensor at Stomid 50 µM): 0.0485 s⁻¹
- koff (read-out: kdis(1/s), BLI, sensor at Stomid 100 µM): 0.0491 s⁻¹
- koff (read-out: kdis(1/s), BLI, sensor at Stomid 200 µM): 0.0486 s⁻¹
- koff (read-out: kdis(1/s), MUTE_ACTL on Anti-GST sensor, Stomid 6.25 µM, rep-1, rep-2): 0.0483 s⁻¹
- koff (read-out: kdis(1/s), MUTE_ACTL on Anti-GST sensor, Stomid 12.5 µM, rep-1, rep-2): 0.0485 s⁻¹
- koff (read-out: kdis(1/s), MUTE_ACTL on Anti-GST sensor, Stomid 25 µM, rep-1, rep-2): 0.0483 s⁻¹
- koff (read-out: kdis(1/s), MUTE_ACTL on Anti-GST sensor, Stomid 50 µM, rep-1, rep-2): 0.0485 s⁻¹
- kon (read-out: kon(1/Ms), BLI, sensor at Stomid 3.12 µM): 4110 M⁻¹ s⁻¹
- kon (read-out: kon(1/Ms), BLI, sensor at Stomid 6.25 µM): 4050 M⁻¹ s⁻¹
- kon (read-out: kon(1/Ms), BLI, sensor at Stomid 12.5 µM): 4070 M⁻¹ s⁻¹
- kon (read-out: kon(1/Ms), BLI, sensor at Stomid 25 µM): 4080 M⁻¹ s⁻¹
- kon (read-out: kon(1/Ms), BLI, sensor at Stomid 50 µM): 4070 M⁻¹ s⁻¹
- kon (read-out: kon(1/Ms), BLI, sensor at Stomid 100 µM): 4060 M⁻¹ s⁻¹
- kon (read-out: kon(1/Ms), BLI, sensor at Stomid 200 µM): 4040 M⁻¹ s⁻¹
- kon (read-out: kon(1/Ms), MUTE_ACTL on Anti-GST sensor, Stomid 6.25 µM, rep-1, rep-2): 4050 M⁻¹ s⁻¹
- kon (read-out: kon(1/Ms), MUTE_ACTL on Anti-GST sensor, Stomid 12.5 µM, rep-1, rep-2): 4050 M⁻¹ s⁻¹
- kon (read-out: kon(1/Ms), MUTE_ACTL on Anti-GST sensor, Stomid 25 µM, rep-1, rep-2): 4070 M⁻¹ s⁻¹
- kon (read-out: kon(1/Ms), MUTE_ACTL on Anti-GST sensor, Stomid 50 µM, rep-1, rep-2): 4070 M⁻¹ s⁻¹
- kon (read-out: kon(1/Ms), MUTE_ACTL on Anti-GST sensor, Stomid 100 µM, rep-1, rep-2): 4080 M⁻¹ s⁻¹
- kon (read-out: kon(1/Ms), MUTE_ACTL on Anti-GST sensor, Stomid 200 µM, rep-1, rep-2): 4070 M⁻¹ s⁻¹
